Data as given in US11464770B2, “Anticancer pharmaceutical composition” (NATIONAL CANCER CENTER, priority 2016, dated 2022).
Where two headings read alike, the source gives them in different places.

Test system: pancreatic cancer cell lines (e.g. MIA PaCa-2)
Experiment: Cell based assay, cell viability (CellTiter-Glo), pancreatic cancer cell lines
Conditions: Homo sapiens
In short: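 Plated cells (24 h) → compound to 0–2 μM final → 72 h → CellTiter-Glo ATP luminescence.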

[1] = pancreatic cancer cell line AsPC-1, 72 hours, read-out: IC50, AsPC-1
[2] = pancreatic cancer cell line BxPC-3, 72 hours, read-out: IC50, BxPC-3
[3] = pancreatic cancer cell line CFPAC-1, 72 hours, read-out: IC50, CFPAC-1
[4] = pancreatic cancer cell line Capan-1, 72 hours, read-out: IC50, Capan-1
[5] = pancreatic cancer cell line Capan-2, 72 hours, read-out: IC50, Capan-2
[6] = pancreatic cancer cell line MIA PaCa-2, 72 hours, read-out: IC50, MIA PaCa-2
[7] = pancreatic cancer cell line PANC-1, 72 hours, read-out: IC50, PANC-1

Row | IC50 [1] [nM] | IC50 [2] [nM] | IC50 [3] [nM] | IC50 [4] [nM] | IC50 [5] [nM] | IC50 [6] [nM] | IC50 [7] [nM] | SMILES
1 | > 2000 | > 2000 | > 10000 | > 2000 | > 2000 | > 2000 | > 2000 | CC(=O)c1c([S+]([O-])Cc2nonc2C)[nH]c2c(Br)ccc(Cl)c2c1=O (centres unmarked) [Compound 106, 3-acetyl-8-bromo-5-chloro-2-(((4-methyl-1,2,5-oxadiazol-3-yl)methyl)sulfinyl)quinolin-4(1H)-one]
2 | > 2000 | > 2000 | > 10000 | > 2000 | > 2000 | > 2000 | > 2000 | CC(=O)c1c([S+]([O-])Cc2cnc3[nH]ccc3c2)[nH]c2c(Br)ccc(Cl)c2c1=O (centres unmarked) [Compound 107, 2-(((1H-pyrrolo[2,3-b]pyridin-5-yl)methyl)sulfinyl)-3-acetyl-8-bromo-5-chloroquinolin-4(1H)-one]
